Test results published in patent publication US20090099240A1, “METHODS FOR TREATING ENERGY METABOLISM DISORDERS BY INHIBITING FATTY ACID AMIDE HYDROLASE ACTIVITY” (N.V. Organon, priority 2006, published 2009).

How the values were obtained:
[1] = system: APOE*3-Leiden transgenic (E3L) mice; experiment: Plasma alanine aminotransferase (ALAT) activity in E3L mice; assay type: in vivo, mouse
Protocol: (§1) E3L mice were fed a high cholesterol (1% w/w) diet (HC diet) for a period of four weeks. Animals were then matched based on their plasma cholesterol levels, and were divided into five groups, each of which was maintained on an HC diet.
Levels of plasma alanine aminotransferase (ALAT) were determined on day 28 (table 7). Plasma ALAT is a measure of hepatic stress and increases in plasma ALAT levels are often associated with liver damage. […] Thus, a reduction in plasma ALAT levels is associated with improved liver function.

[2] = system: APOE*3-Leiden transgenic (E3L) mice; experiment: Plasma ketone body (D-3-hydroxybutyrate) levels in E3L mice; assay type: in vivo, mouse
Excerpt: as §1
We quantified plasma D-3-hydroxybutyrate (b-HBA; ketone bodies) levels were quantified in plasma samples obtained after a 4-hour fasting period at time points t=0, t=2, and t=4 weeks using kits #2940 (b-HBA reagent set) and #2947 (b-HBA control set)) according to the guidelines and protocol specified by the manufacturer (Instruchemie, Delfzijl, The Netherlands).

[3] = system: APOE*3-Leiden transgenic (E3L) mice; experiment: Plasma leptin ELISA in E3L mice; assay type: in vivo, mouse
Excerpt: as §1
Accordingly, we quantified plasma leptin levels after a four hour fasting period at treatment time points 0, 14, and 28 days using a mouse-specific leptin ELISA or (kit number MOB00 from R&D Systems, Minneapolis, Minn.) according to the guidelines and protocol specified by the manufacturer.

[4] = system: APOE*3-Leiden transgenic (E3L) mice; experiment: Organ and tissue weights in E3L mice on high cholesterol diet
Excerpt: (§2) We assessed the effect of inhibiting FAAH activity on body weight, body fat, triglyceride levels, cholesterol levels in APOE*3-Leiden transgenic (E3L) mice, an animal model of hyperlipidemia. […] See van Vlijmen et al. (1994), J. Clin Invest., 93:1403-1410. Indeed, upon high fat and cholesterol feeding, these mice develop various stages of atherosclerotic lesions depending on plasma total cholesterol levels and resembling those found in humans. See Groot et al. (1996), Arterioscler. Thromb. Vasc. Biol., 16:926-933; Versch ren et al. (2005), Arterioscler. Thromb. Vasc Biol., 25:161-167; and Lutgens et al. (1999), Circulation; 99(2):276-283). Thus, the E3L mouse is a suitable model for the investigation of the efficacy of anti-atherosclerotic drugs.
as §1
(§3) Blood samples were collected at days 0, 14, and 28 of the treatment period. At the end of the treatment period, animals were sacrificed, and various tissues and organs were analyzed. Unless otherwise indicated, values are mean±standard deviation (SD).

[5] = system: APOE*3-Leiden transgenic (E3L) mice; experiment: Plasma adiponectin ELISA in E3L mice; assay type: in vivo, mouse
Excerpt: as §1
We determined plasma adiponectin levels after a four hour fasting period at 0, 14, 28 days, using a mouse-specific adiponectin/Acrp30 ELISA (kit number MRP300 from R&D Systems, Minneapolis, Minn.).

[6] = system: APOE*3-Leiden transgenic (E3L) mice; experiment: Body weight in E3L mice on high cholesterol diet; assay type: in vivo, mouse
Excerpt: as §2, §1

[7] = system: cynomolgus monkeys; experiment: Time course of plasma OEA levels after oral dosing in cynomolgus monkeys; assay type: in vivo, cynomolgus monkey; conditions: oral 50-1500 mg/kg
Protocol: Afterwards, a time course of plasma OEA levels was determined for each subject by obtaining a plasma sample at 0.5, 1, 2, 4, 8, 12, and 24 hours post-administration.

[8] = system: APOE*3-Leiden transgenic (E3L) mice; experiment: Oil Red O staining of liver sections (steatosis) in E3L mice; assay type: in vivo, mouse; conditions: compared to the control vehicle group
Excerpt: as §1
In order to examine cellular stress in the liver due to lipid storage (steatosis), we stained frozen liver tissue sections with Oil Red O a fat-soluble diazo dye used to stain for lipids. Digital photomicrographs of liver cross sections were taken for each individual animal (magnification: 20 fold). […]

[9] = system: APOE*3-Leiden transgenic (E3L) mice; experiment: Food intake per animal per day in E3L mice; assay type: in vivo, mouse
Excerpt: as §2, §1

[10] = system: APOE*3-Leiden transgenic (E3L) mice; experiment: Plasma lipoprotein profiles (size fractionation of pooled plasma) in E3L mice; assay type: in vivo, mouse; conditions: day 28, FIG. 1
Protocol: as §1
Lipoprotein profiles were determined in pooled plasma from day 28, as described in Verschuren et al. (2005), Arterioscler. Thromb. Vasc Biol., 25:161-167. An equal amount of plasma per animal was used to prepare a plasma pool for each group. Plasma lipoproteins in each plasma pool were separated by size fractionation. Typically, VLDL, IDL/LDL and HDL lipoproteins are eluted in fractions 4-8, fractions 11-16 and fractions 17-20, respectively.

[11] = system: APOE*3-Leiden transgenic (E3L) mice; experiment: Lipid content of liver (TLC) in E3L mice; assay type: in vivo, mouse
Excerpt: as §1
A reduction of Red Oil O staining in liver generally indicates reduced liver lipid content. We therefore quantified levels of lipids in livers from each animal, as described in Havekes et al. (1987), Biochem. J., 247:739-746; Delsing et al. (2005), J. Cardiovasc. Pharmacol., 45:53-60; and Post et al. (2004), ATVB, 24:768-774. Liver tissue homogenates were prepared. Lipids were extracted, dried under nitrogen, dissolved in chloroform, and spotted onto a channeled 20×20 cm silica gel thin layer chromatography (TLC) plate. Lipids were then separated, TLC plates were warmed up to visualize bands, and bands were quantified using an internal standard as reference.

[12] = system: APOE*3-Leiden transgenic (E3L) mice; experiment: Total plasma cholesterol in E3L mice; assay type: in vivo, mouse
Excerpt: as §2, §1, §3

[13] = system: APOE*3-Leiden transgenic (E3L) mice; experiment: Total plasma triglyceride levels in E3L mice; assay type: in vivo, mouse
Excerpt: as §2, §1, §3

[14] = E3L mice, HC diet, end of four-week treatment, mean ± SD

`NC(=O)c1cccc(-c2cccc(OC(=O)NC3CCCCC3)c2)c1` [KDS-4103] was tested, and the “Plasma Alanine Amino Transferase Activity” value ([1]; day 28) was “*94.0 ± 22.1 U/L”, the “plasma ALAT levels, in words” value ([1]; day 28, compared to respective control group) was “significantly decreased” and the “plasma HB levels, in words” value ([2]; at 28 days, compared to the oral vehicle control group) was “significantly lower”. The “Plasma Ketone Body (HB) levels” value ([2]; day 0, 4-hour fasting) was 0.73 ± 0.24 mM, the “Plasma Ketone Body (HB) levels” value ([2]; day 14, 4-hour fasting) was 0.32 ± 0.11 mM and the “Plasma Ketone Body (HB) levels” value ([2]; day 28, 4-hour fasting) was “^#0.43 ± 0.11^ mM”. The “Plasma Leptin Levels” value ([3]; day 0, four hour fasting) was “^#3.9 ± 1.5 ng/ml”, the “Plasma Leptin Levels” value ([3]; day 14, four hour fasting) was “^#4.5 ± 2.1 ng/ml” and the “Plasma Leptin Levels” value ([3]; day 28, four hour fasting) was “^#5.1 ± 2.3 ng/ml”. For the same compound, the “plasma leptin levels, in words” value ([3]; relative to the oral vehicle control group) was “significantly decreased”, the “Organ and Tissue Weights: Brain” value [4, 14] was “^#0.46 ± 0.02^ g” and the “Organ and Tissue Weights: Fat (gonadal fat)” value [4, 14] was “*0.22 ± 0.04 g”. The “Organ and Tissue Weights: Heart” value [4, 14] was 0.14 ± 0.02 g, the “Organ and Tissue Weights: Liver” value [4, 14] was 1.03 ± 0.14 g and the “Organ and Tissue Weights: Lung” value [4, 14] was 0.18 ± 0.01 g. The “brain weight, in words” value ([4]; end of treatment) was “slight, but significant increase”, the “heart, liver, or lung weights, in words” value ([4]; end of treatment) was “No significant changes” and the “gonadal fat weight, in words” value ([4]; relative to the oral vehicle group) was “significantly lower”. For the same compound, the Plasma Adiponectin Levels ([5]; day 0, four hour fasting) was 10.4 ± 1.9 µg/mL, the Plasma Adiponectin Levels ([5]; day 14, four hour fasting) was 10.2 ± 2.7 µg/mL and the “Plasma Adiponectin Levels” value ([5]; day 28, four hour fasting) was “^#11.9 ± 1.9^ mg/ml”. For the same compound, the “plasma adiponectin level, in words” value ([5]; day 28 as compared to day 0) was “significantly higher”, the “body weights, in words” value ([6]; last time point (4 weeks), within group) was “significantly reduced” and the “Body Weight” value ([6]; week 0) was 21.8 ± 1.1 g. The “Body Weight” value ([6]; week 0.5) was 21.9 ± 1.0 g, the “Body Weight” value ([6]; week 1) was 21.9 ± 1.0 g and the “Body Weight” value ([6]; week 1.5) was “*21.3 ± 0.9 g”. The “Body Weight” value ([6]; week 2) was “*21.4 ± 0.9 g”, the “Body Weight” value ([6]; week 2.5) was “*21.4 ± 0.9 g” and the “Body Weight” value ([6]; week 3) was “*21.3 ± 0.9 g”. For the same compound, the “Body Weight” value ([6]; week 3.5) was 21.5 ± 0.9 g, the “Body Weight” value ([6]; week 4) was “*21.5 ± 1.0 g” and the “time of peak plasma OEA levels” value ([7]; FIG. 2) was “four”. For the same compound, the “plasma OEA levels, in words” value ([7]; all time points after the peak (up to 24 hours)) was “remained elevated”, the “plasma OEA levels, in words” value ([7]; two hours after administration, FIG. 2) was “clearly elevated” and the “steatotic (Oil Red O) staining in liver, in words” value [8] was “small, but not significant decrease”. The “Food Intake Per Animal Per Day” value ([9]; interval 0-0.5 weeks) was 2.3 ± 0.1 g, the “Food Intake Per Animal Per Day” value ([9]; interval 0.5-1.0 weeks) was 2.4 ± 0.1 g and the “Food Intake Per Animal Per Day” value ([9]; interval 1.0-1.5 weeks) was 2.3 ± 0.2 g. For the same compound, the “Food Intake Per Animal Per Day” value ([9]; interval 1.5-2.0 weeks) was 2.6 ± 0.1 g, the “Food Intake Per Animal Per Day” value ([9]; interval 2.0-2.5 weeks) was 2.3 ± 0.3 g and the “Food Intake Per Animal Per Day” value ([9]; interval 2.5-3.0 weeks) was 2.5 ± 0.1 g. For the same compound, the “Food Intake Per Animal Per Day” value ([9]; interval 3.0-3.5 weeks) was 2.4 ± 0.3 g, the “Food Intake Per Animal Per Day” value ([9]; interval 3.5-4.0 weeks) was “*2.0 ± 0.1 g” and the “Food Intake Per Animal Per Day” value ([9]; interval run-in) was 2.5 ± 0.5 g. The “food intake, in words” value ([9]; last time point) was “slight, but significant, decrease”, the “IDL/LDL particle size, in words” value [10] was “slight shift toward larger IDL/LDL particles” and the “VLDL fraction of plasma lipoprotein profile, in words” value [10] was “increase”. The “liver triglycerides (TG), in words” value ([11]; compared to respective control group) was “significantly decreased”, the “liver cholesterol esters (CE), in words” value ([11]; compared to the oral vehicle group) was “significantly increased” and the “Lipid Content of Liver: Cholesterol Esters” value ([11]; end of four-week treatment) was “^#59 ± 6”. For the same compound, the “Lipid Content of Liver: Free Cholesterol” value ([11]; end of four-week treatment) was 22 ± 2, the “Lipid Content of Liver: Triglycerides” value ([11]; end of four-week treatment) was “*64 ± 14” and the “Total Plasma Cholesterol” value ([12]; day 0) was 14.3 ± 3.2 mM. For the same compound, the “Total Plasma Cholesterol” value ([12]; day 14) was “^#19.1 ± 4.9 mM”, the “Total Plasma Cholesterol” value ([12]; day 28) was “^#19.5 ± 4.1 mM” and the “total plasma cholesterol levels, in words” value ([12]; days 14 and 28, relative to respective control group) was “slightly and significantly increased”. The “Total Plasma Triglyceride Levels” value ([13]; day 0) was 1.5 ± 0.4 mM, the “Total Plasma Triglyceride Levels” value ([13]; day 14) was 1.9 ± 0.6 mM and the “Total Plasma Triglyceride Levels” value ([13]; day 28) was 1.9 ± 0.5 mM. The “total plasma triglyceride levels, in words” value ([13]; relative to respective control group) was “not significantly changed”.
